Patent US12077503B2, “Substituted cyclic amides and their use as herbicides” (FMC CORPORATION, priority 2015, dated 2024)

Tests used:
Format in all cases: in vivo
Kochia (Kochia scoparia) [1] = assay: Test A preemergence; details: for Kochia plant response rating (0 to 100 scale, 0 is no effect, 100 is complete control): visual injury approx. 10 d
Summary of the method: (§1)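 Compounds were formulated in a non-phytotoxic solvent mixture with surfactant and applied as a preemergence directed soil spray after seeding, or sprayed postemergence over plants 2 to 10 cm tall at the one- to two-leaf stage. Evaluation after about 10 d compared treated with untreated controls, using a scale from 0 (no effect) to 100 (complete control).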

[2] = system: barnyardgrass (Echinochloa crus-galli); assay: Test A preemergence; details: for Barnyardgrass plant response rating (0 to 100 scale, 0 is no effect, 100 is complete control): visual injury approx. 10 d
Summary of the method: as §1

[3] = system: giant foxtail (Setaria faberii); assay: Test A preemergence; details: for Foxtail, Giant plant response rating (0 to 100 scale, 0 is no effect, 100 is complete control): visual injury approx. 10 d
Summary of the method: as §1

[4] = system: pigweed (Amaranthus retroflexus); assay: Test A preemergence; details: for Pigweed plant response rating (0 to 100 scale, 0 is no effect, 100 is complete control): visual injury approx. 10 d
[5] = system: ragweed (common ragweed, Ambrosia elatior); assay: Test A preemergence; details: for Ragweed plant response rating (0 to 100 scale, 0 is no effect, 100 is complete control): visual injury approx. 10 d
Summary of the method: as §1

[6] = system: ryegrass, Italian (Italian ryegrass, Lolium multiflorum); assay: Test A preemergence; details: for Ryegrass, Italian plant response rating (0 to 100 scale, 0 is no effect, 100 is complete control): visual injury approx. 10 d
Summary of the method: as §1

[7] = system: Galium (catchweed bedstraw, Galium aparine); assay: Test A postemergence
Summary of the method: as §1

Kochia (Kochia scoparia) [8] = assay: Test A postemergence
Summary of the method: as §1

[9] = system: barnyardgrass (Echinochloa crus-galli); assay: Test A postemergence
Summary of the method: as §1

[10] = system: blackgrass (Alopecurus myosuroides); assay: Test A postemergence
Summary of the method: as §1

corn (Zea mays) = assay: Test A postemergence
Summary of the method: as §1

[11] = system: giant foxtail (Setaria faberii); assay: Test A postemergence
Summary of the method: as §1

[12] = system: pigweed (Amaranthus retroflexus); assay: Test A postemergence
Summary of the method: as §1

[13] = system: ragweed (common ragweed, Ambrosia elatior); assay: Test A postemergence
Summary of the method: as §1

[14] = system: ryegrass, Italian (Italian ryegrass, Lolium multiflorum); assay: Test A postemergence
Summary of the method: as §1

[15] = system: wheat (Triticum aestivum); assay: Test A postemergence
Summary of the method: as §1

[16] = system: barnyardgrass (Echinochloa crus-galli); assay: Test B flooded paddy test; details: Flood, 250 g ai/ha; 0 to 100 scale where 0 is no effect and 100 is complete control; 13 to 15 d
Summary of the method: (§2)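 Evaluation by eye, against controls, occurred 13–15 d post-treatment in a greenhouse, using a 0 (no effect) to 100 (complete control) scale. Application was into the paddy water, 3 cm deep over the soil, on 2-leaf plants.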

[17] = system: ducksalad (Heteranthera limosa); assay: Test B flooded paddy test; details: Flood, 250 g ai/ha; 0 to 100 scale where 0 is no effect and 100 is complete control; 13 to 15 d
Summary of the method: as §2

rice (Oryra sativa) = assay: Test B flooded paddy test; details: Flood, 250 g ai/ha; 0 to 100 scale where 0 is no effect and 100 is complete control; 13 to 15 d
Summary of the method: as §2

[18] = system: sedge, umbrella (small-flower umbrella sedge, Cyperus difformis); assay: Test B flooded paddy test; details: Flood, 250 g ai/ha; 0 to 100 scale where 0 is no effect and 100 is complete control; 13 to 15 d
Summary of the method: as §2

[19] = 125 g ai/ha, Preemergence, visual injury after approximately 10 d, 0 to 100 scale where 0 is no effect and 100 is complete control
[20] = 125 g ai/ha, postemergence, visual rating after approx. 10 d, 0 to 100 scale (0 no effect, 100 complete control)
[21] = Postemergence, 500 g ai/ha, 0 to 100 scale where 0 is no effect and 100 is complete control
[22] = 500 g ai/ha, preemergence, 0 to 100 scale, 0 = no effect, 100 = complete control
[23] = 500 g ai/ha, postemergence, visual injury, 0 to 100 scale (0 no effect, 100 complete control), approx. 10 d
[24] = 125 g ai/ha, postemergence, visual injury rating on 0 to 100 scale (0 no effect, 100 complete control), approx. 10 d

CN1CC(c2c(F)cccc2F)C(C(=O)Nc2cccc(F)c2F)C1=O (stereo not drawn) [Compound 547]
Plant response rating, Kochia (Kochia (Kochia scoparia) [1]; [19]): 0
Kochia plant response rating (0 to 100 scale, 0 is no effect, 100 is complete control) (Kochia (Kochia scoparia) [1]; Preemergence, 500 g ai/ha): 0
Plant response rating, Barnyardgrass [2, 19]: 90
Barnyardgrass plant response rating (0 to 100 scale, 0 is no effect, 100 is complete control) ([2]; Preemergence, 500 g ai/ha): 90
Plant response rating, Foxtail, Giant [3, 19]: 90
Foxtail, Giant plant response rating (0 to 100 scale, 0 is no effect, 100 is complete control) ([3]; Preemergence, 500 g ai/ha): 90
Plant response rating, Pigweed [4, 19]: 0
Pigweed plant response rating (0 to 100 scale, 0 is no effect, 100 is complete control) ([4]; Preemergence, 500 g ai/ha): 0
Plant response rating, Ragweed [5, 19]: 0
Ragweed plant response rating (0 to 100 scale, 0 is no effect, 100 is complete control) ([5]; Preemergence, 500 g ai/ha): 70
Plant response rating, Ryegrass, Italian [6, 19]: 0
Ryegrass, Italian plant response rating (0 to 100 scale, 0 is no effect, 100 is complete control) ([6]; Preemergence, 500 g ai/ha): 0
Plant response rating, Galium [7, 20]: 0
Plant response rating, Galium [7, 21]: 20
Plant response rating, Kochia (Kochia (Kochia scoparia) [8]; [20]): 0
Plant response rating, Kochia (Kochia (Kochia scoparia) [8]; [21]): 50
Plant response rating, Barnyardgrass [9, 20]: 70
Plant response rating, Barnyardgrass [9, 21]: 90
Plant response rating, Blackgrass [10, 20]: 0
Plant response rating, Blackgrass [10, 21]: 0
Plant response rating, Corn (corn (Zea mays); [20]): 0
Plant response rating, Corn (corn (Zea mays); [21]): 0
Plant response rating, Foxtail, Giant [11, 20]: 80
Plant response rating, Foxtail, Giant [11, 21]: 90
Plant response rating, Pigweed [12, 20]: 0
Plant response rating, Pigweed [12, 21]: 0
Plant response rating, Ragweed [13, 20]: 0
Plant response rating, Ragweed [13, 21]: 30
Plant response rating, Ryegrass, Italian [14, 20]: 0
Plant response rating, Ryegrass, Italian [14, 21]: 0
Plant response rating, Wheat [15, 20]: 0
Plant response rating, Wheat [15, 21]: 0
Plant response rating, Barnyardgrass [16]: 0
Plant response rating, Ducksalad [17]: 0
Plant response rating, Rice (rice (Oryra sativa)): 0
Plant response rating, Sedge, Umbrella [18]: 0

Cc1ccc(C2CNC(=O)C2C(=O)Nc2ccccc2F)cc1C(F)(F)F (racemic) [Compound 678]
Plant response rating, Kochia (Kochia (Kochia scoparia) [1]; [19]): 0
Plant response rating, Kochia (Kochia (Kochia scoparia) [1]; [22]): 30
Plant response rating, Barnyardgrass [2, 19]: 90
Plant response rating, Barnyardgrass [2, 22]: 90
Plant response rating, Foxtail, Giant [3, 19]: 80
Plant response rating, Foxtail, Giant [3, 22]: 90
Plant response rating, Pigweed [4, 19]: 0
Plant response rating, Pigweed [4, 22]: 0
Plant response rating, Ragweed [5, 19]: 0
Plant response rating, Ragweed [5, 22]: 0
Plant response rating, Ryegrass, Italian [6, 19]: 0
Plant response rating, Ryegrass, Italian [6, 22]: 20
Plant response rating, Galium [7, 20]: 0
Plant response rating, Galium [7, 23]: 30
Plant response rating, Kochia (Kochia (Kochia scoparia) [8]; [20]): 0
Plant response rating, Kochia (Kochia (Kochia scoparia) [8]; [23]): 0
Plant response rating, Barnyardgrass [9, 20]: 70
Plant response rating, Barnyardgrass [9, 23]: 80
Plant response rating, Blackgrass [10, 20]: 30
Plant response rating, Blackgrass [10, 23]: 60
Plant response rating, Corn (corn (Zea mays); [20]): 10
Plant response rating, Corn (corn (Zea mays); [23]): 30
Plant response rating, Foxtail, Giant [11, 20]: 20
Plant response rating, Foxtail, Giant [11, 23]: 60
Plant response rating, Pigweed [12, 20]: 0
Plant response rating, Pigweed [12, 23]: 0
Plant response rating, Ragweed [13, 20]: 0
Plant response rating, Ragweed [13, 23]: 0
Plant response rating, Ryegrass, Italian [14, 20]: 0
Plant response rating, Ryegrass, Italian [14, 23]: 20
Plant response rating, Wheat [15, 20]: 0
Plant response rating, Wheat [15, 23]: 20
Plant response rating, Barnyardgrass [16]: 40
Plant response rating, Ducksalad [17]: 75
Plant response rating, Rice (rice (Oryra sativa)): 10
Plant response rating, Sedge, Umbrella [18]: 0

O=C1NCC(c2ccnc(C(F)(F)F)c2)C1C(=O)Nc1cccc(F)c1F (racemic) [Compound 514]
Plant response rating, Kochia (Kochia (Kochia scoparia) [1]; [19]): 0
Kochia plant response rating (0 to 100 scale, 0 is no effect, 100 is complete control) (Kochia (Kochia scoparia) [1]; Preemergence, 500 g ai/ha): 50
Plant response rating, Barnyardgrass [2, 19]: 90
Barnyardgrass plant response rating (0 to 100 scale, 0 is no effect, 100 is complete control) ([2]; Preemergence, 500 g ai/ha): 90
Plant response rating, Foxtail, Giant [3, 19]: 90
Foxtail, Giant plant response rating (0 to 100 scale, 0 is no effect, 100 is complete control) ([3]; Preemergence, 500 g ai/ha): 90
Plant response rating, Pigweed [4, 19]: 0
Pigweed plant response rating (0 to 100 scale, 0 is no effect, 100 is complete control) ([4]; Preemergence, 500 g ai/ha): 40
Plant response rating, Ragweed [5, 19]: 0
Ragweed plant response rating (0 to 100 scale, 0 is no effect, 100 is complete control) ([5]; Preemergence, 500 g ai/ha): 30
Plant response rating, Ryegrass, Italian [6, 19]: 20
Ryegrass, Italian plant response rating (0 to 100 scale, 0 is no effect, 100 is complete control) ([6]; Preemergence, 500 g ai/ha): 60
Galium plant response rating [7, 24]: 40
Plant response rating, Galium [7, 21]: 50
Kochia plant response rating (Kochia (Kochia scoparia) [8]; [24]): 30
Plant response rating, Kochia (Kochia (Kochia scoparia) [8]; [21]): 50
Barnyardgrass plant response rating [9, 24]: 80
Plant response rating, Barnyardgrass [9, 21]: 90
Blackgrass plant response rating [10, 24]: 20
Plant response rating, Blackgrass [10, 21]: 50
Corn plant response rating (corn (Zea mays); [24]): 30
Plant response rating, Corn (corn (Zea mays); [21]): 80
Foxtail, Giant plant response rating [11, 24]: 70
Plant response rating, Foxtail, Giant [11, 21]: 90
Pigweed plant response rating [12, 24]: 0
Plant response rating, Pigweed [12, 21]: 30
Ragweed plant response rating [13, 24]: 0
Plant response rating, Ragweed [13, 21]: 20
Ryegrass, Italian plant response rating [14, 24]: 20
Plant response rating, Ryegrass, Italian [14, 21]: 40
Wheat plant response rating [15, 24]: 30
Plant response rating, Wheat [15, 21]: 40
Plant response rating, Barnyardgrass [16]: 50
Plant response rating, Ducksalad [17]: 100
Plant response rating, Rice (rice (Oryra sativa)): 20
Plant response rating, Sedge, Umbrella [18]: 0
